Experimental findings from US20010014357A1, “Citrus peel extract as inhibitor of ACYL coa-cholesterol-o-acyltransferase, inhibitor of macrophage-lipid complex accumulation on the arterial wall and preventive or treating agent for hepatic diseases” (priority 1997, published 2001) are described below.

Experiment [1] is described as follows: Serum GOT, GPT and γGTP levels in men given oral naringin. The class given is in vivo, human. The note with it: person, oral 10 mg/kg daily, day 68. On the procedure: Naringin was orally administered to a person at a daily dose of 10 mg/kg for 68 days and serum GOT, GPT and γGTP levels were determined just before the administration (day 0), and 45 and 68 days after the administration (day 45 and day 68), respectively. Consequently, serum GOT- levels at day 45 and day 68 decreased by 17%, respectively, in comparison to that of day 0. Serum GPT levels at day 45 and day 68 decreased by 15% and 19%, respectively, in comparison to that of day 0. Further, serum γGTP levels at day 45 and day 68 decreased by 25% and 51%, respectively, in comparison to that of day 0.
On the other hand, naringin was orally administered to a person, who had drunk alcoholic beverages habitually in an amount of 100 cc per day, at a daily dose of 6 mg/kg for 30 days and serum γGTP level was determined just before the administration (day 0) and 30 days after the administration (day 30). Consequently, initial serum γGTP level at day 0 was 129 IU/l, while that of day 30 decreased to 69 IU/l which is within the normal range.

In experiment [2] the test system is hepatic cells (fatty liver). Description: Histopathological observation of the livers of cholesterol-fed rabbits. The class given is in vivo, New Zealand White rabbits. The note with it: 1% cholesterol diet plus 0.1% flavonoid or 1 mg/kg Lovastatin, eight weeks, H&E stain.
Method: The same procedure as in (Step 1) was repeated except that 40 three-month-old New Zealand White rabbits (Yeonam Horticulture and Animal Husbandry College, Korea) each weighing about 2.5 to 2.6 kg were used in place of the rats, and the rabbits were fed for eight weeks with four different diets, i.e., RC4 diet containing 1% cholesterol (Control group); 1% cholesterol plus 1 mg/kg Lovastatin® (Comparative group); 1% cholesterol plus 0.1% hesperidin; and 1% cholesterol plus 0.1% naringin, respectively.
Thereafter, the livers were separated from the rabbits and the histopathological observations were carried out as follows.
The rabbits were anesthetized with an intramuscular injection of ketamine (75 mg/kg) and subjected to an abdominal incision. […] The fixed liver was washed sufficiently with water, dehydrated stepwise with 70%, 80%, 90% and 100% ethanol and, then, embedded in paraffin. The embedded liver was sectioned in 4 μm thickness with a microtome and stained with hematoxylin and eosin. The stained liver specimen was made transparent with xylene, mounted with permount, and then observed under a microscope to confirm the presence of lesions.
The nature of experiment [3]: Serum GOT and GPT levels in rats on a high-cholesterol diet. The note with it: 1% cholesterol diet plus 0.02% naringin or citrus peel extract (0.04% hesperidin equivalent), six weeks. The format is in vivo, Sprague-Dawley rats. An excerpt: 30 four-week-old Sprague-Dawley rats (Taihan laboratory animal center, Korea) each weighing about 90 to 110 g were evenly divided into three dietary groups by a randomized block design. The rats of the three groups were fed with three different high-cholesterol diets, i.e., AIN-76 laboratory animal diet (ICN Biochemicals, Cleveland, Ohio, U.S.A.) containing 1% cholesterol(Control group), 1% cholesterol plus 0.02% naringin, and 1% cholesterol plus citrus peel extract prepared in Example 2(1) in an amount equivalent to 0.04% hesperidin, respectively.
The effect of administering naringin and citrus peel extract to rats on the function of the liver was examined as follows.
Blood samples were taken from the rats of the three dietary groups and serum GOT (glutamate-oxaloacetate transaminase) and GPT (glutamate-pyruvate transaminase) levels were determined in accordance with the method of Reitman and Frankel (Reitman, S. and J. S. Frankel, Am. J. Clin. Pathol., 28, 56 (1956)). GOT and GPT are synthesized in the liver and heart, and released into blood stream upon the damage of these organs. Accordingly, GOT and GPT are representative markers of the liver-function and high serum GOT and GPT levels mean severe damage of the liver.

In experiment [4] the test system is macrophage-lipid complex accumulated on the arterial endothelium. The experiment in a line: Analysis for fatty streak (macrophage-lipid complex) in the main artery of cholesterol-fed rabbits. The class given is in vivo, New Zealand White rabbits. The conditions noted are these: 1% cholesterol diet plus 0.1% flavonoid or 1 mg/kg Lovastatin; for area of macrophage-lipid complex accumulated on the arterial endothelium compared to the control group / M-L (macrophage-lipid) complex area: 6 weeks; for layer of macrophage-lipid complex observed on the arterial endothelium (FIGS. 1B-1D): control shows a thick layer; for M-L (macrophage-lipid) complex area: Oil Red O stained area as proportion of total arterial area, control group 35. An excerpt: RC4 diet comprises 7.6% moisture, 22.8% crude protein, 2.8% crude fat, 8.8% crude ash, 14.4% crude cellulose and 43.6% soluble nitrogen-free substances. The rabbits were bred for 6 weeks while being allowed free access to the diets and water. The rabbits bred in (Step 1) were sacrificed and their chest were incised. The main artery was cut out therefrom in a length of about 5 cm downward from the site 1 cm above the aortic valve and the fat surrounding the main artery was removed. The main artery was incised in the middle along the longitudinal axis and pinned to a dish. The moist artery was photographed and, then, staining of fatty streak was carried out in accordance with the method of […]., et al.(J. Lab. Clin. […] A part of the incised main artery was washed three times by 2 min. with anhydrous propylene glycol and stained for 30 min. with a saturated solution of Oil Red O (ORO, Sigma Co.) dissolved in propylene glycol. Thereafter, the artery was washed twice by 3 min. with 85% propylene glycol to remove remaining staining solution and, then washed with physical saline. The artery was photographed and the photograph was traced. The area of stained region (fatty streak region) was determined with an image analyzer (LEICA, Q-600, Germany) and its proportion(%) to the total arterial area was calculated. On the other hand, the other part of the main artery was stained in accordance with hematoxylin-eosin (H&E) and Masson's trichrome staining methods and observed under a microscope to confirm whether the macrophage-lipid complexes were accumulated in the intima, internus, elastic lamina and media.

Experiment [5] can be described thus: Blood total cholesterol and triglyceride levels in cholesterol-fed rabbits. The format is in vivo, New Zealand White rabbits. The note with it: 1% cholesterol diet plus 0.1% flavonoid or 1 mg/kg Lovastatin, 6 weeks. How it is done: RC4 diet comprises 7.6% moisture, 22.8% crude protein, 2.8% crude fat, 8.8% crude ash, 14.4% crude cellulose and 43.6% soluble nitrogen-free substances. The rabbits were bred for 6 weeks while being allowed free access to the diets and water. Further, blood samples were taken from the rabbits and total cholesterol and triglyceride levels were determined in accordance with the same procedure in Example 5.

`C[C@@H]1O[C@@H](O[C@H]2[C@H](Oc3cc(O)c4c(c3)O[C@H](c3ccc(O)cc3)CC4=O)O[C@H](CO)[C@@H](O)[C@@H]2O)[C@H](O)[C@H](O)[C@H]1O` [naringin]: the “decrease of serum γGTP level in comparison to day 0” value in experiment [1] turned out to be 51%. Besides, the “microscopic features of the hepatic cells (FIGS. 2B-2D)” value (shortened to “microscopic features”) in experiment [2] was “normal and the deposition of fat is not observed”. In experiment [3], the “serum GOT level, lower than that of the control group” value is given as “about 30%” and the “serum GPT level, lower than that of the control group” value is approximately 10%. In addition, in experiment [4], the “area of macrophage-lipid complex accumulated on the arterial endothelium compared to the control group” value (“area … compared to the control group” below) is “decreased significantly” and the “layer of macrophage-lipid complex observed on the arterial endothelium (FIGS. 1B-1D)” value (from here on “layer”) is listed as “no or very thin layers”.
Turning to `CC[C@H](C)C(=O)O[C@H]1C[C@@H](C)C=C2C=C[C@H](C)[C@H](CC[C@@H]3C[C@@H](O)CC(=O)O3)[C@H]21` [Lovastatin, reference compound], the “microscopic features” value in experiment [2] was “irregularly arranged and enlarged and a large amount of fat is deposited therein”. Besides, in experiment [4], the “area … compared to the control group” value was “decreased significantly” and the “layer” value was “no or very thin layers”.
Regarding `COc1ccc([C@@H]2CC(=O)c3c(O)cc(O[C@@H]4O[C@H](CO[C@@H]5O[C@@H](C)[C@H](O)[C@@H](O)[C@H]5O)[C@@H](O)[C@H](O)[C@H]4O)cc3O2)cc1O` [hesperidin], the “microscopic features” value in experiment [2] is “normal and the deposition of fat is not observed”. In experiment [5], the Total cholesterol turned out to be 1130 mg/dL and the Triglyceride amounted to 40 mg/dL. In experiment [4], the “area … compared to the control group” value is “decreased significantly”, the “M-L (macrophage-lipid) complex area” value was 13.5% and the “layer” value is “no or very thin layers”.
As to `COc1ccc([C@@H]2CC(=O)c3c(O)cc(O)cc3O2)cc1O` [hesperetin], in experiment [5], the Total cholesterol was 1150 mg/dL and the Triglyceride stood at 41 mg/dL. For the same compound, in experiment [4], the “area … compared to the control group” value is reported as “decreased significantly” and the “M-L (macrophage-lipid) complex area” value came to 13%.
For the compound `O=C1C[C@@H](c2ccc(O)cc2)Oc2cc(O)cc(O)c21` [naringenin], the “area … compared to the control group” value in experiment [4] is listed as “decreased significantly”.
